Results published in patent US20160046616A1, “NRF2 SMALL MOLECULE INHIBITORS FOR CANCER THERAPY” (THE JOHNS HOPKINS UNIVERSITY, priority 2013, published 2016).
Entries after “also recorded” stand apart in the source; their conditions may differ.

What was measured:
[1] = system: H1437 NRF2-ARE-Fluc stable cell line; assay: H1437 Nrf2 assay: NRF2-ARE firefly luciferase reporter gene assay; type: cell-based; conditions: Homo sapiens, NCI-H1437, H1437 NRF2-ARE-Fluc stable cell line; read-out: Potency of inhibition, H1437
[2] = biological target: T1, Nrf2-MAFG protein complex binding to fluorescein labeled ARE oligos (Homo sapiens, UniProt Q16236); assay: Fluorescence polarization (FP) assay of DNA binding; type: biochemical; conditions: increasing concentration of Nrf2 inhibitor
T1 construct: made in house
T1 sequence (Q16236 1-605): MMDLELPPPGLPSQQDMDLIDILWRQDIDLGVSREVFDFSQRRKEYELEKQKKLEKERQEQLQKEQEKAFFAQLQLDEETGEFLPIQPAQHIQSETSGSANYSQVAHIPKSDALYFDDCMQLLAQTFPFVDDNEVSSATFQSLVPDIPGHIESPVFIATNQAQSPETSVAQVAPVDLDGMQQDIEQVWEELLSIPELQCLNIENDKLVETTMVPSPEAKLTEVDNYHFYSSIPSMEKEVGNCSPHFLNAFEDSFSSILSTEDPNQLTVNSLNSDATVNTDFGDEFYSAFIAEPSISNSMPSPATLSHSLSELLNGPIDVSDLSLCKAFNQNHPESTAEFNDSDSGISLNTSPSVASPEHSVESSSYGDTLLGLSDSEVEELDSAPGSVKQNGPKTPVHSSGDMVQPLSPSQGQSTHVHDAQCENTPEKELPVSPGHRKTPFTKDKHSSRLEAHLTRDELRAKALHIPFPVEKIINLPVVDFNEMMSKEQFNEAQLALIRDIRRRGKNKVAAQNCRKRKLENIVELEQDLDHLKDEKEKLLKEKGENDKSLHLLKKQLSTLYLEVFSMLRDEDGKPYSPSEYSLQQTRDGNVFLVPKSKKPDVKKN
Protocol: To determine if the presently disclosed small molecule inhibitors were specifically interacting with Nrf2 or the Nrf2-MAF protein complex, a fluorescence polarization assay was developed. Ammonium aurintricarboxylate, a potent inhibitor of protein-nucleic acid interactions was used as positive control in the assay. The concentration of budesonide was 10 μM in the assay.
FP assay data showing inhibition of binding of Nrf2-MAFG protein complex to fluorescein labeled ARE oligos in the presence of compound 1 (FIG. 2), compound 4 (FIG. 3), and compound 3 (FIG. 4) are shown. Ammonium aurintricarboxylate (ATA-10 μM), a well-known inhibitor of DNA binding activity, was included as positive control. […] X-axis represents increasing concentration of Nrf2 inhibitor.
Briefly, fluorescein-labeled oligonucleotides corresponding to Anti-oxidant Response Element (ARE) were diluted to the appropriate concentration in PBS. Nrf2/MafG heterodimer was prepared by gel filtration with mixed samples of purified Nrf2 and MafG proteins. MafG/Nrf2 complex was then diluted with the buffer containing Nrf2 inhibitors or buffer only to the appropriate starting concentration and then serially diluted and incubated at 4° C. for 1 h. A mixture containing fluorescein-labeled ARE and purified protein sample was incubated at 4° C. for another 1 h. After pre-warming samples to 25° C. for 2 to 3 min, fluorescence anisotropy and total intensity was measured for each dilution using a FlexStation 3 (Molecular Devices, LLC) in Basic Binding Assay-FP mode. Ammonium aurintricarboxylate (ATA-10 μM), a well-known inhibitor of DNA binding activity, was included as positive control.

[3] = In vivo pharmacokinetic plasma profile; conditions: CD-1 mice; for Compound retained in the blood until / Time by which most of the compound is cleared from the blood: IP 30 mg/kg, IV 3 mg/kg, plasma
Protocol: For the in vivo pharmacokinetic studies, single intraperitoneal (IP; 30 mg/kg) and intravenous (IV; 3 mg/kg) injection was carried out using CD-1 mice. (n=3 per group/time point). Compounds in the plasma were quantified using Mass Spectrometry.

[4] = system: pancreatic cancer cells (MiaPaCa); assay: Clonogenic assay in MiaPaCa pancreatic cancer cells; type: cell-based; conditions: for Growth of MiaPaCa cells, combination with gemcitabine: gemcitabine (10 nM in figure legends)
Protocol: (A-B) Panc1 and MiaPaCa cells were treated gemcitabine (10 nM) singly or in combination with compound 1 for 72 h. At the end of treatment, regular growth media was added and cells were further incubated for 8-10 days and stained with crystal violet;
For the clonogenic assays, 1,000 cells/well were plated in a 6-well plate. The next day, the cells were treated with vehicle (DMSO), Nrf2 inhibitor, a chemotherapeutic drug, or a combination of Nrf2 and chemotherapeutic drugs for 48 hrs. The drug containing media was then replaced with regular growth media and the cells were incubated for an additional 10 days. At the end of incubation period, the colonies were stained with Crystal Violet and imaged.

Row | SMILES | IC50 [1] [µM] | Binding of Nrf2-MAFG protein complex to fluorescein labeled ARE oligos [2] | Retention time in the blood, comparison of compounds 3, 4 and 1 [3] | Compound retained in the blood until [3] | Growth of MiaPaCa cells, single agent [4] | Growth of MiaPaCa cells, combination with gemcitabine [4] | Time by which most of the compound is cleared from the blood [3]
1 | O=C(Nc1ncc(Cc2ccc(C(F)(F)F)cc2)s1)c1ccc(-c2cccc([N+](=O)[O-])c2)o1 [Compound 1] | < 5 | Dose dependent reduction in binding | retained in the blood for the longest time | about 24 hr | suppressed the growth of two different pancreatic cell lines | enhance the cytotoxicity of gemcitabine; also recorded: potentiates the cytotoxicity of standard care chemotherapy drugs (gemcitabine) | 
2 | CC1(C)CC2CC(C)(CN2S(=O)(=O)c2ccc(C(=O)Nc3ccc(Cl)c(S(=O)(=O)N4CCOCC4)c3)cc2)C1 (stereo not drawn) [compound 3] | < 5 | Dose dependent reduction in binding | cleared the fastest |  | suppressed the growth of two different pancreatic cell lines; also recorded: significant growth inhibitory effect as a single agent | enhance the cytotoxicity of gemcitabine | about 8 hrs
3 | Cc1ccccc1C(=O)N1CCc2cc(-c3nc(NC(=O)Cc4ccc5c(c4)OCO5)sc3C)ccc21 [compound 4] | < 5 | Dose dependent reduction in binding |  | about 12 hr | suppressed the growth of two different pancreatic cell lines; also recorded: significant growth inhibitory activity as single agent | enhance the cytotoxicity of gemcitabine; also recorded: potentiates the cytotoxicity of standard care chemotherapy drugs (gemcitabine) | ≤ 24 h
